In PubChem BioAssay (NCI):
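Step 1: Grow cells in 96-well plates. Step 2: Expose to compound for 48 hours at 5 concentrations. Step 3: Interpolate endpoints linearly; if unreached, use highest concentration. Abbreviation: GI50, concentration required for 50% inhibition of growth. TGI: concentration producing complete growth inhibition.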

Experiments:
Assay in all cases: DTP human tumour cell line panel, 48 h; in the data active = GI50 below about 0.43 µM; inactive = the rest
[1] = tested on: 786-0 renal
[2] = tested on: A498 renal
[3] = tested on: A549 NSCLC
[4] = tested on: ACHN renal
[5] = tested on: BT-549 breast
[6] = tested on: CAKI-1 renal
[7] = tested on: CCRF-CEM leukemia
[8] = tested on: COLO 205 colon
[9] = tested on: DU-145 prostate
[10] = tested on: HCC-2998 colon
[11] = tested on: HCT-116 colon
[12] = tested on: HCT-15 colon
[13] = tested on: HL-60(TB) leukemia
[14] = tested on: HOP-62 NSCLC
[15] = tested on: HOP-92 NSCLC
[16] = tested on: HS 578T breast
[17] = tested on: HT29 colon
[18] = tested on: IGROV1 ovarian
[19] = tested on: K-562 leukemia
[20] = tested on: KM12 colon
[21] = tested on: LOX IMVI melanoma
[22] = tested on: M14 melanoma
[23] = tested on: MALME-3M melanoma
[24] = tested on: MCF7 breast
[25] = tested on: MDA-MB-231 breast
[26] = tested on: MDA-MB-435
[27] = tested on: MOLT-4 leukemia
[28] = tested on: NCI-H226 lung
[29] = tested on: NCI-H23 lung
[30] = tested on: NCI-H460 lung
[31] = tested on: NCI-H522 lung
[32] = tested on: NCI/ADR-RES ovarian
[33] = tested on: OVCAR-3 ovarian
[34] = tested on: OVCAR-4 ovarian
[35] = tested on: OVCAR-5 ovarian
[36] = tested on: OVCAR-8 ovarian
[37] = tested on: PC-3 prostate
[38] = tested on: RPMI-8226 leukemia
[39] = tested on: RXF 393 renal
[40] = tested on: SF-268 CNS
[41] = tested on: SF-295 CNS
[42] = tested on: SF-539 CNS
[43] = tested on: SK-MEL-2 melanoma
[44] = tested on: SK-MEL-28 melanoma
[45] = tested on: SK-MEL-5 melanoma
[46] = tested on: SK-OV-3 ovarian
[47] = tested on: SN12C renal
[48] = tested on: SNB-19 CNS
[49] = tested on: SNB-75 CNS
[50] = tested on: SR leukemia
[51] = tested on: SW-620 colon
[52] = tested on: T-47D breast
[53] = tested on: TK-10 renal
[54] = tested on: U251 CNS
[55] = tested on: UACC-257 melanoma
[56] = tested on: UACC-62 melanoma
[57] = tested on: UO-31 renal

O=Cc1ncc(-c2ccc(C(F)(F)F)cc2)c(NC2CCCCCC2)n1
inactive: GI50 [1] > 10 µM | GI50 [2] > 10 µM | GI50 [3] > 10 µM | GI50 [4] > 10 µM | GI50 [5] > 10 µM | GI50 [6] > 10 µM | GI50 [7] > 10 µM | GI50 [8] > 10 µM | GI50 [9] > 10 µM | GI50 [10] > 10 µM | GI50 [11] > 10 µM | GI50 [12] > 10 µM | GI50 [13] > 10 µM | GI50 [14] > 10 µM | GI50 [15] > 10 µM | GI50 [16] > 10 µM | GI50 [17] > 10 µM | GI50 [18] > 10 µM | GI50 [19] > 10 µM | GI50 [20] > 10 µM | GI50 [21] > 10 µM | GI50 [22] > 10 µM | GI50 [23] > 10 µM | GI50 [24] > 10 µM | GI50 [25] > 10 µM | GI50 [26] > 10 µM | GI50 [27] > 10 µM | GI50 [28] > 10 µM | GI50 [29] > 10 µM | GI50 [30] > 10 µM | GI50 [31] > 10 µM | GI50 [32] > 10 µM | GI50 [33] > 10 µM | GI50 [34] > 10 µM | GI50 [35] > 10 µM | GI50 [36] > 10 µM | GI50 [37] > 10 µM | GI50 [38] > 10 µM | GI50 [39] > 10 µM | GI50 [40] > 10 µM | GI50 [41] > 10 µM | GI50 [42] > 10 µM | GI50 [43] > 10 µM | GI50 [44] > 10 µM | GI50 [45] > 10 µM | GI50 [46] > 10 µM | GI50 [47] > 10 µM | GI50 [48] > 10 µM | GI50 [49] > 10 µM | GI50 [50] 5.7 µM | GI50 [51] > 10 µM | GI50 [52] > 10 µM | GI50 [53] > 10 µM | GI50 [54] > 10 µM | GI50 [55] > 10 µM | GI50 [56] > 10 µM | GI50 [57] > 10 µM
> 10 µM: TGI [1] | TGI [2] | TGI [3] | TGI [4] | TGI [5] | TGI [6] | TGI [7] | TGI [8] | TGI [9] | TGI [10] | TGI [11] | TGI [12] | TGI [13] | TGI [14] | TGI [15] | TGI [16] | TGI [17] | TGI [18] | TGI [19] | TGI [20] | TGI [21] | TGI [22] | TGI [23] | TGI [24] | TGI [25] | TGI [26] | TGI [27] | TGI [28] | TGI [29] | TGI [30] | TGI [31] | TGI [32] | TGI [33] | TGI [34] | TGI [35] | TGI [36] | TGI [37] | TGI [38] | TGI [39] | TGI [40] | TGI [41] | TGI [42] | TGI [43] | TGI [44] | TGI [45] | TGI [46] | TGI [47] | TGI [48] | TGI [49] | TGI [50] | TGI [51] | TGI [52] | TGI [53] | TGI [54] | TGI [55] | TGI [56] | TGI [57]
